The record followed here is patent US11639503B2, “Anti-chymase aptamer and use for same” (RIBOMIC INC., priority 2017, dated 2023).

Oligonucleotides are written 5' to 3', each unit as a sugar letter and its base; * is a phosphorothioate linkage, no mark a phosphodiester; rarer units and linkages stand in square brackets, end groups in braces. Plain capitals give the bases only. r = 2'-OH (RNA); f = 2'-fluoro

The term IC50 denotes the concentration that gives 50% inhibition.

First the molecules themselves.
T1: chymase purified from human skin mast cell (native, Calbiochem) (Homo sapiens, UniProt P23946)
T1 construct: Here, the native is chymase purified from human skin mast cell; purchased Calbiochem; host or cells: human skin mast cell (tissue-derived)
T1 sequence (P23946 22-247): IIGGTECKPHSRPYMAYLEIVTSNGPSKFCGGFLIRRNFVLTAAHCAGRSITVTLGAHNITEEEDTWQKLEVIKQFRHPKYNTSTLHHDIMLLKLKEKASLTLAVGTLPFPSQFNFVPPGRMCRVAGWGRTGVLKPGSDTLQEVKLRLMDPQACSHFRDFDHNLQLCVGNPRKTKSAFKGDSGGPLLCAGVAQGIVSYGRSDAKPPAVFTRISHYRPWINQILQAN

B1: 9 (nucleic acid)
chain: rGrGrGrArAfCrGrArArGfCrGrAfCrArGrAfCrGfUfUfCfCrArGfCrGfUfCfUrArAfUrAfCrGfUrGrArAfUrArAfCfCfUrGrAfUfCrGfUrArGrGrGrGrGfUfUfCrArArGfUrAfCfUrGrArGrGrAfCrArGrA
B2: 10 (nucleic acid)
chain: rGrGrGrArAfCrGrArArGfCrGrAfCrArGrAfCfCrGrArAfUfCrArGrArArGfUfUfCrArAfCrAfUrGrGrAfCrAfUrArAfCrAfUfCrGrAfUrGrGrGrGfUrGfUfCrArArGfUrAfCfUrGrAfCrGrAfCrArGrA

The first data set concerns the target T1, chymase purified from human skin mast cell (native, Calbiochem). Description: chymase enzyme activity inhibition, native substrate angiotensin I (His-Leu fluorescence). It counts as biochemical. The conditions noted are these: Table 2; substrate angiotensin I 50 μM, chymase 0.5 nM, 37° C. 90 min; mean of 2 or 3 measurements. As to the method:
A second method of evaluation employs a native substrate. A useful native substrate for chymase is angiotensin I. Here, His-Leu, a peptide fragment released upon degradation of angiotensin I, is fluorescently derivatized, and the fluorescence intensity therefrom is quantified.
In the assay, an enzyme reaction is carried out in 50 μL of solution C. First, 0.3-0.75 ng of chymase (recombinant, manufactured by SIGMA; or native, manufactured by Calbiochem) is diluted in solution C to obtain 5 μL chymase solution. Each nucleic acid is prepared in solution C to obtain 25 μL solutions. 5 μL of each chymase dilution and 25 μL of each nucleic acid solution are mixed, and then the mixture is incubated at 37° C. for 5 minutes. Separately, 20 μL of 125 μM angiotensin I (manufactured by Peptide Institute, Inc.) is prepared in solution C and incubated at 37° C. for 5 minutes. The angiotensin I solution is added to the mixture of chymase and nucleic acid, and the enzyme reaction is initiated. After the reaction was allowed to proceed at 37° C. for 90 minutes, 25 μL of ice-cooled 30% trichloroacetic acid solution is added to terminate the reaction. The entire mixture is centrifuged at 4° C., 14000 rpm for 10 minutes, and 30 μL of the resulting supernatant is used for the subsequent reaction for fluorescent derivatization.
After 30 μL of the supernatant is added to a 96-well plate (Black, manufactured by Costar), 15 μL of 2% o-phthalaldehyde (manufactured by SIGMA) solution in methanol and 170 μL of 0.3M NaOH solution are mixed in each well, and the plate is allowed to stand at room temperature for 10 minutes. Subsequently, 25 μL of 3M HCl solution is added to terminate the reaction. The plate is set to the microplate reader SpectraMax190 (manufactured by Molecular Devices Corporation), and the fluorescence intensity is determined at an excitation wavelength of 355 nm and a fluorescence wavelength of 460 nm.
For control, samples are treated and analyzed in the same manner in two cases: use of SEQ ID NO: 58 (negative control) and use of chymostatin, a known chymotrypsin-like serine protease inhibitor (positive control). In both cases, fluorescence intensity obtained at 0 minute reaction time serves as a blank determination. Taking the fluorescence intensity detected with the addition of an equal volume of solution C, in place of each nucleic acid, in the chymase enzyme reaction as 100%, the inhibitory rate for each test substance is calculated, and the inhibitor concentration required to cause a 50% inhibition of the enzyme activity (IC50) is determined.
Whether the nucleic acids shown by SEQ ID NO: 9 and 10 inhibit the enzyme activity of chymase was determined by the following method. Angiotensin I is converted by chymase to angiotensin II, during which a peptide fragment His-Leu is released. Since the peptide His-Leu is fluorescently derivatized by o-phthalaldehyde, its fluorescence intensity can be quantitatively measured.
The total volume of solution for an enzyme reaction in the assay was set to 50 μL, and the reaction was performed in solution C buffer. At first, native (manufactured by Calbiochem) was diluted with solution C to give 5 μL thereof. Here, the native is chymase purified from human skin mast cell. The nucleic acid was serially diluted with solution C at a concentration of 0.0027-2 μM to give 25 μL thereof. The chymase solution (5 μL) and the nucleic acid solution (25 μL) were mixed, and the mixture was incubated at 37° C. for 5 min. On the other hand, […] angiotensin I (manufactured by PEPTIDE INSTITUTE, INC.) was prepared in solution C to give 20 μL thereof, which was incubated at 37° C. for 5 min. The angiotensin I solution was added to a mixture of chymase and nucleic acid to start an enzyme reaction. The final chymase concentration of the reaction solution was 0.5 nM, and the final substrate concentration was 50 μM. […]
In turn, B1 registered an IC50 of 0.22 nM.

Molecule B2 gave a half-inhibitory concentration (IC50) of 0.43 nM.

The same data set, now with this note: Table 6; angiotensin I as substrate; mean of 2 or 3 measurements.
Consider “33(1) (AUGAUCGGACAUAACUAAUUAGGGGUGUCAA; aptamer; modified variant with 2'-O-methyl and end modifications, pattern not given here)”, for which it took 0.074 nM to reach half-maximal inhibition (IC50). The same measure, in the same setting: next, “33(2) (AUGAUCGGACAUAACUAAUUAGGGGUGUCAA; aptamer; modified variant with 2'-O-methyl and end modifications, pattern not given here)”: 0.078 nM; “33(3) (AUGAUCGGACAUAACUAAUUAGGGGUGUCAA; aptamer; modified variant with 2'-O-methyl and end modifications, pattern not given here)”: 0.071 nM; “33(4) (AUGAUCGGACAUAACUAAUUAGGGGUGUCAA; aptamer; modified variant with 2'-O-methyl and end modifications, pattern not given here)”: 0.072 nM. The molecule “33(5) (AUGAUCGGACAUAACUAAUUAGGGGUGUCAA; aptamer; modified variant with 2'-O-methyl and end modifications, pattern not given here)” gave an IC50 of 0.076 nM. Still for that read-out and setting: next, “33(6) (AUGAUCGGACAUAACUAAUUAGGGGUGUCAA; aptamer; modified variant with 2'-O-methyl and end modifications, pattern not given here)”: 0.053 nM; “33(7) (AUGAUCGGACAUAACUAAUUAGGGGUGUCAA; aptamer; modified variant with 2'-O-methyl and end modifications, pattern not given here)”: 0.071 nM; “33(8) (AUGAUCGGACAUAACUAAUUAGGGGUGUCAA; aptamer; modified variant with 2'-O-methyl and end modifications, pattern not given here)”: 0.061 nM. Same read-out and setting: next, “33(9) (AUGAUCGGACAUAACUAAUUAGGGGUGUCAA; listed as RNA, chemistry not fully specified)”: 1.35 nM. Same read-out and setting: with “33(10) (AUGAUCGGACAUAACUAAUUAGGGGUGUCAA; aptamer; modified variant with 2'-O-methyl and end modifications, pattern not given here)” the figure was 0.071 nM; with “33(11) (AUGAUCGGACAUAACUAAUUAGGGGUGUCAA; aptamer; modified variant with 2'-O-methyl and end modifications, pattern not given here)”, 0.051 nM. In turn, “33(12) (AUGAUCGGACAUAACUAAUUAGGGGUGUCAA; modification pattern variant (12), chemistry not fully specified)” showed an IC50 of 0.048 nM.

“33(13) (AUGAUCGGACAUAACUAAUUAGGGGUGUCAA; aptamer; modified variant with 2'-O-methyl and end modifications, pattern not given here)” had an IC50 of 0.069 nM. The same measure, in the same setting: with “33(14) (AUGAUCGGACAUAACUAAUUAGGGGUGUCAA; aptamer; modified variant with 2'-O-methyl and end modifications, pattern not given here)” the figure was 0.075 nM; with “33(15) (AUGAUCGGACAUAACUAAUUAGGGGUGUCAA; aptamer; modified variant with 2'-O-methyl and end modifications, pattern not given here)”, 0.072 nM. The same measure, in the same setting: next, “33(16) (AUGAUCGGACAUAACUAAUUAGGGGUGUCAA; aptamer; modified variant with 2'-O-methyl and end modifications, pattern not given here)”: 0.063 nM. Consider “33(17) (AUGAUCGGACAUAACUAAUUAGGGGUGUCAA; aptamer; modified variant with 2'-O-methyl and end modifications, pattern not given here)”, for which the IC50 was found to be 0.038 nM.
